Test results taken from patent US8247211B2, “Glycopeptide antibiotics” (American Cyanamid Company, priority 2001, dated 2012).
Converted amounts (≈) assume the structure as drawn. Numbered stars: 1 amine (or outer) side, 2 acyl side, 3 side chain; on linkers, the order of the positions; unused ones are H or OH. Square brackets hold non-standard residues; d marks the D form. Peptide text beside a SMILES is read from it. X5 = N=C1NCC(C(O)[C@@H](N[*:1])C(=O)[*:2])N1; X4 = N=C1NCC(C(O)[C@H](N[*:1])C(=O)[*:2])N1; Cha = N[C@@H](CC1CCCCC1)C(=O)O; dCha = N[C@H](CC1CCCCC1)C(=O)O

Tests used:
Assay in all cases: In vitro antibacterial evaluation: minimum inhibitory concentration (MIC), broth dilution method
Assay type in all cases: cell-based
Streptococcus sp. = conditions: 18 hours at 35° C.
Procedure: (§1) The minimum inhibitory concentration (MIC), the lowest concentration of the antibiotic which inhibits growth of the test organism, is determined by the broth dilution method using Muller-Hinton II […] (Baltimore Biological Laboratories) following the recommendations of the National Committee for Clinical Laboratory Standards [Methods for dilution antimicrobial susceptibility tests for bacteria that grow aerobically, approved standard M7-A2, National Committee for Clinical Laboratory Standards, Villanova, Pa].
(§2) An inoculum level of 5×10^5 CFU/mL, and a range of antibiotic concentrations (64-0.06 μg/mL) is used. […] The test organisms include a spectrum of Gram-positive bacteria comprised of Staphylococcus sp., Streptococcus sp. and Enterococcus sp. These organisms include recent clinical isolates that are resistant to methicillin, penicillin and/or vancomycin.

Enterococcus sp. = conditions: broth dilution, 18 hours at 35° C.
Procedure: as §1, §2

Staphylococcus sp. = conditions: 18 hours at 35° C.
Procedure: as §1, §2

[1] = Streptococcus pneumoniae (GC 4565), broth dilution
[2] = Streptococcus pneumoniae (GC 1894), broth dilution
[3] = Streptococcus agalactiae (GC 4564), broth dilution
[4] = Streptococcus pneumoniae (ATCC 6301), broth dilution
[5] = Streptococcus pyogenes (GC 4563), broth dilution
[6] = broth dilution, inoculum 5×10^5 CFU/mL

CCC(=O)Nc1cc(CC2NC(=O)C(C(C)c3ccccc3)NC(=O)CNC(=O)C(CO)NC(=O)C(C(O)C3CNC(=N)N3C3OC(CO)C(O)C(O)C3O)NC(=O)C(C(O)C3CNC(=N)N3)NC2=O)ccc1O (stereo not drawn) [Example 14, Cyclo[glycyl-β-methylphenylalanyl-3-(propanamido)tyrosyl-3-(2-iminoimidazolidin-4-yl)seryl-3-(3-hexopyranosyl-2-iminoimidazolidin-4-yl)serylseryl]]
MIC Streptococcus pneumoniae (GC 4565) (Streptococcus sp.; [1]): 64 µg/mL (≈ 61.4 µM) | MIC Streptococcus pneumoniae (GC 4565) (Streptococcus sp.; broth dilution): 64 µg/mL (≈ 61.4 µM)

CC(C)C(=O)Nc1cc(CC2NC(=O)C(C(C)c3ccccc3)NC(=O)CNC(=O)C(CO)NC(=O)C(C(O)C3CNC(=N)N3C3OC(CO)C(O)C(O)C3O)NC(=O)C(C(O)C3CNC(=N)N3)NC2=O)ccc1O (stereo not drawn) [Example 15, Cyclo[glycyl-β-methylphenylalanyl-3-(2-methylpropanamido)tyrosyl-3-(2-iminoimidazolidin-4-yl)seryl-3-(3-hexopyranosyl-2-iminoimidazolidin-4-yl)serylseryl]]
MIC Streptococcus pneumoniae (GC 4565) (Streptococcus sp.; [1]): 64 µg/mL (≈ 60.6 µM) | MIC Streptococcus pneumoniae (GC 4565) (Streptococcus sp.; broth dilution): 64 µg/mL (≈ 60.6 µM)

Cc1ccc(OC(=O)Nc2cc(CC3NC(=O)C(C(C)c4ccccc4)NC(=O)CNC(=O)C(CO)NC(=O)C(C(O)C4CNC(=N)N4C4OC(CO)C(O)C(O)C4O)NC(=O)C(C(O)C4CNC(=N)N4)NC3=O)ccc2O)cc1 (stereo not drawn) [Example 19, Cyclo[glycyl-β-methylphenylalanyl-3-[[(4-methylphenoxy)carbonyl]amino]tyrosyl-3-(2-iminoimidazolidin-4-yl)seryl-3-(3-hexopyranosyl-2-iminoimidazolidin-4-yl)serylseryl]]
MIC Streptococcus pneumoniae (GC 1894) (Streptococcus sp.; [2]): 64 µg/mL (≈ 57.1 µM) | MIC Streptococcus pneumoniae (GC 1894) (Streptococcus sp.; broth dilution): 64 µg/mL (≈ 57.1 µM)

CC(c1ccccc1)C1NC(=O)CNC(=O)C(CO)NC(=O)C(C(O)C2CNC(=N)N2C2OC(CO)C(O)C(O)C2O)NC(=O)C(C(O)C2CNC(=N)N2)NC(=O)C(Cc2ccc3oc(=O)[nH]c3c2)NC1=O (stereo not drawn) [Example 22, Cyclo[3-(2,3-dihydro-2-oxo-1,3-benzoxazol-5-yl)alanyl-3-(2-iminoimidazolidin-4-yl)seryl-3-(3-hexopyranosyl-2-iminoimidazolidin-4-yl)serylserylglycyl-β-methylphenylalanyl]]
MIC Enterococcus faecium (GC 4557) (Enterococcus sp.; Enterococcus faecium (GC 4557)): 64 µg/mL (≈ 63.2 µM) | MIC Enterococcus faecium (GC 4557) (Enterococcus sp.): 64 µg/mL (≈ 63.2 µM) | MIC Streptococcus agalactiae (GC 4564) (Streptococcus sp.; [3]): 32 µg/mL (≈ 31.6 µM) | MIC Streptococcus pneumoniae (ATCC 6301) (Streptococcus sp.; [4]): 8 µg/mL (≈ 7.91 µM) | MIC Streptococcus pneumoniae (GC 1894) (Streptococcus sp.; [2]): 8 µg/mL (≈ 7.91 µM) | MIC Streptococcus pneumoniae (GC 4565) (Streptococcus sp.; [1]): 8 µg/mL (≈ 7.91 µM) | MIC Streptococcus pyogenes (GC 4563) (Streptococcus sp.; [5]): 32 µg/mL (≈ 31.6 µM) | MIC Streptococcus agalactiae (GC 4564) (Streptococcus sp.; broth dilution): 32 µg/mL (≈ 31.6 µM) | MIC Streptococcus pneumoniae (ATCC 6301) (Streptococcus sp.; broth dilution): 8 µg/mL (≈ 7.91 µM) | MIC Streptococcus pneumoniae (GC 1894) (Streptococcus sp.; broth dilution): 8 µg/mL (≈ 7.91 µM) | MIC Streptococcus pneumoniae (GC 4565) (Streptococcus sp.; broth dilution): 8 µg/mL (≈ 7.91 µM) | MIC Streptococcus pyogenes (GC 4563) (Streptococcus sp.; broth dilution): 32 µg/mL (≈ 31.6 µM)

Cc1cccc(Oc2ccc(-c3nc4cc(C[C@@H]5NC(=O)[C@H](C(C)c6ccccc6)NC(=O)CNC(=O)[C@H](CO)NC(=O)[C@H](C(O)C6CNC(=N)N6)NC(=O)[C@H](C(O)C6CNC(=N)N6)NC5=O)ccc4o3)cc2)c1 (stereo partly drawn) [Example 41, Cyclo[3-[2-[4-(3-methylphenoxy)phenyl]benzoxazol-5-yl]alanyl-3-(2-iminoimidazolidin-4-yl)-seryl-3-(2-iminoimidazolidin-4-yl)serylserylglycyl-β-methylphenylalanyl]]
MIC Staphylococcus haemolyticus (GC 4546) (Staphylococcus sp.; strain GC 4546, broth dilution): 64 µg/mL (≈ 63 µM) | MIC Coagulase Negative Staphylococcus (GC 4547) (Staphylococcus sp.; strain GC 4547, broth dilution): 64 µg/mL (≈ 63 µM) | MIC Coagulase Negative Staphylococcus (GC 4548) (Staphylococcus sp.; strain GC 4548, broth dilution): >64 µg/mL | MIC Coagulase Negative Staphylococcus (GC 4549) (Staphylococcus sp.; strain GC 4549, broth dilution): 32 µg/mL (≈ 31.5 µM) | MIC Coagulase Negative Staphylococcus (GC 4551) (Staphylococcus sp.; strain GC 4551, broth dilution): 64 µg/mL (≈ 63 µM) | MIC Enterococcus faecalis (GC 6189) (Enterococcus sp.; Enterococcus faecalis (GC 6189)): >64 µg/mL

CC(C1CCCCC1)C1NC(=O)CNC(=O)C(CO)NC(=O)C(C(O)C2CNC(=N)N2C2OC(CO)C(O)C(O)C2O)NC(=O)C(C(O)C2CNC(=N)N2)NC(=O)C(CC2CCC(OC3OC(CO)C(OC4OC(CO)C(O)C(O)C4O)C(O)C3O)CC2)NC1=O (stereo not drawn) [Example 53a, Cyclo[3-[4-[(4-O-hexopyranosylhexopyranosyl)oxy]cyclohexyl]alanyl-3-(2-iminoimidazolidin-4-yl)seryl-3-(3-hexopyranosyl-2-iminoimidazolidin-4-yl)serylserylglycyl-3-cyclohexyl-2-aminobutanoyl]]
MIC Streptococcus agalactiae (GC 4564) (Streptococcus sp.; [3]): 64 µg/mL (≈ 49 µM) | MIC Streptococcus pneumoniae (ATCC 6301) (Streptococcus sp.; [4]): 64 µg/mL (≈ 49 µM) | MIC Streptococcus pneumoniae (GC 1894) (Streptococcus sp.; [2]): 32 µg/mL (≈ 24.5 µM) | MIC Streptococcus pneumoniae (GC 4565) (Streptococcus sp.; [1]): 64 µg/mL (≈ 49 µM) | MIC Streptococcus pyogenes (GC 4563) (Streptococcus sp.; [5]): 64 µg/mL (≈ 49 µM) | MIC Streptococcus agalactiae (GC 4564) (Streptococcus sp.; broth dilution): 64 µg/mL (≈ 49 µM) | MIC Streptococcus pneumoniae (ATCC 6301) (Streptococcus sp.; broth dilution): 64 µg/mL (≈ 49 µM) | MIC Streptococcus pneumoniae (GC 1894) (Streptococcus sp.; broth dilution): 32 µg/mL (≈ 24.5 µM) | MIC Streptococcus pneumoniae (GC 4565) (Streptococcus sp.; broth dilution): 64 µg/mL (≈ 49 µM) | MIC Streptococcus pyogenes (GC 4563) (Streptococcus sp.; broth dilution): 64 µg/mL (≈ 49 µM)

N=C1NCC(C(O)[C@@H]2NC(=O)[C@@H](CC3CCCCC3)NC(=O)[C@H](CC3CCCCC3)NC(=O)CNC(=O)[C@H](CO)NC(=O)[C@@H](C(O)C3CNC(=N)N3)NC2=O)N1 (stereo partly drawn) [Example 58, Cyclo[3-cyclohexylalanyl-3-cyclohexylalanyl-3-(2-iminoimidazolidin-4-yl)seryl-3-(2-iminoimidazolidin-4-yl)-serylserylglycyl]] (cyclo([Cha][dCha][X4][X5]SG))
MIC Coagulase Negative Staphylococcus (GC 4547) (Staphylococcus sp.; broth dilution): 4 µg/mL (≈ 5.06 µM) | MIC Coagulase Negative Staphylococcus (GC 4548) (Staphylococcus sp.; broth dilution): 4 µg/mL (≈ 5.06 µM) | MIC Coagulase Negative Staphylococcus (GC 4549) (Staphylococcus sp.; broth dilution): 4 µg/mL (≈ 5.06 µM) | MIC Coagulase Negative Staphylococcus (GC 4551) (Staphylococcus sp.; broth dilution): 8 µg/mL (≈ 10.1 µM) | MIC Staphylococcus haemolyticus (GC 4546) (Staphylococcus sp.; broth dilution): 4 µg/mL (≈ 5.06 µM) | MIC Staphylococcus aureus (ATCC 29213) (Staphylococcus sp.; strain ATCC 29213, broth dilution): 16 µg/mL (≈ 20.2 µM) | MIC Staphylococcus aureus (GC 4542) (Staphylococcus sp.; strain GC 4542, broth dilution): 16 µg/mL (≈ 20.2 µM) | MIC Staphylococcus aureus (GC 4544) (Staphylococcus sp.; strain GC 4544, broth dilution): 16 µg/mL (≈ 20.2 µM)

CC(c1ccccc1)C1NC(=O)CNC(=O)C(CO)NC(=O)C(C(O)C2CNC(=N)N2C2OC(CO)C(O)C(O)C2O)NC(=O)C(C(O)C2CNC(=N)N2)NC(=O)C(Cc2ccc(OC3OC(CO)C(OC4OC(CO)C(O)C(O)C4OCc4ccc(OCc5ccccc5)cc4)C(O)C3O)cc2)NC1=O (stereo not drawn) [Example 231b, Cyclo[glycyl-β-methylphenylalanyl-O-[4-O-[2-O-[4-(phenylmethoxy)benzyl]hexopyranosyl]-hexopyranosyl]tyrosyl-3-(2-iminoimidazolidin-4-yl)seryl-3-(3-hexopyranosyl-2-iminoimidazolidin-4-yl)serylseryl]]
MIC Coagulase Negative Staphylococcus (GC 6257) (Staphylococcus sp.; Coagulase Negative Staphylococcus (GC 6257)): 12 to 32 µg/mL | MIC Streptococcus agalactiae (GC 4564) (Streptococcus sp.; Streptococcus agalactiae (GC 4564)): 1 to 8 µg/mL | MIC Streptococcus pneumoniae (GC 1894) (Streptococcus sp.; Streptococcus pneumoniae (GC 1894)): <0.06 to 2 µg/mL | MIC Streptococcus pneumoniae (GC 4565) (Streptococcus sp.; Streptococcus pneumoniae (GC 4565)): 0.5 to 8 µg/mL | MIC Streptococcus pyogenes (GC 4563) (Streptococcus sp.; Streptococcus pyogenes (GC 4563)): 1 to 8 µg/mL | MIC Streptococcus agalactiae (GC 4564) (Streptococcus sp.; [6]): 1 to 8 µg/mL | MIC Streptococcus pneumoniae (GC 1894) (Streptococcus sp.; [6]): <0.06 to 2 µg/mL | MIC Streptococcus pneumoniae (GC 4565) (Streptococcus sp.; [6]): 0.5 to 8 µg/mL | MIC Streptococcus pyogenes (GC 4563) (Streptococcus sp.; [6]): 1 to 8 µg/mL
